Source: the supplement of paper PMC8253809

Experiments:
DIPGX29 = H3.3 K27M diffuse intrinsic pontine glioma line; assay: growth inhibition relative to DMSO (0) and positive control (1) (fraction); higher = more growth inhibition
Method: (§1)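 Paxalisib (GDC0084) x mirdametinib (PD0325901) dose matrix on pHGG cell lines and astrocyte controls, 7 days, adherent 384-well. CellTiter-Glo RLU was normalised (no log2) to fractional activity between DMSO (0) and the positive control (1). Each combination was tested in two plate orientations.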

DIPGX37 = H3.3 K27M diffuse intrinsic pontine glioma line; assay: as above
Method: as §1

O=C(NOC[C@H](O)CO)c1ccc(F)c(F)c1Nc1ccc(I)cc1F + CC1(C)OCCn2c1nc1c(N3CCOCC3)nc(-c3cnc(N)nc3)nc12 [GDC0084]
growth inhibition
Details | compound 1 concentration 0.009766 µM | compound 1 concentration 0.01953 µM | compound 1 concentration 0.03906 µM | compound 1 concentration 0.07812 µM | compound 1 concentration 0.15625 µM | compound 1 concentration 0.3125 µM | compound 1 concentration 0.625 µM | compound 1 concentration 1.25 µM | compound 1 concentration 5 µM | compound 1 concentration 20 µM
DIPGX29, compound 2 concentration 0.03906 µM | 0.638 | 0.646 | 0.648 | 0.701 | 0.69 | 0.738 | 0.748 | 0.755 | 0.895 | 0.958
DIPGX29, compound 2 concentration 0.07812 µM | 0.15 | 0.207 | 0.157 | 0.241 | 0.208 | 0.306 | 0.424 | 0.498 | 0.796 | 0.919
DIPGX29, compound 2 concentration 0.15625 µM | 0.213 | 0.194 | 0.204 | 0.242 | 0.215 | 0.307 | 0.451 | 0.518 | 0.813 | 0.909
DIPGX29, compound 2 concentration 0.3125 µM | 0.306 | 0.272 | 0.343 | 0.357 | 0.359 | 0.415 | 0.506 | 0.652 | 0.859 | 0.947
DIPGX29, compound 2 concentration 0.625 µM | 0.411 | 0.38 | 0.431 | 0.462 | 0.487 | 0.495 | 0.632 | 0.697 | 0.917 | 0.981
DIPGX29, compound 2 concentration 1.25 µM | 0.531 | 0.526 | 0.609 | 0.603 | 0.627 | 0.625 | 0.79 | 0.803 | 0.952 | 0.985
DIPGX29, compound 2 concentration 5 µM | 0.911 | 0.936 | 0.919 | 0.945 | 0.966 | 0.973 | 0.966 | 0.993 | 0.999 | 1
DIPGX29, compound 2 concentration 20 µM | 0.933 | 0.947 | 0.948 | 0.968 | 0.964 | 0.984 | 0.989 | 0.996 | 1 | 1
DIPGX37, compound 2 concentration 0.03906 µM | -0.0653 | -0.109 | 0.00889 | 0.0388 | 0.199 | 0.341 | 0.484 | 0.642 | 0.948 | 0.988
DIPGX37, compound 2 concentration 0.07812 µM | 0.157 | 0.133 | 0.163 | 0.275 | 0.352 | 0.487 | 0.599 | 0.725 | 0.959 | 0.993
DIPGX37, compound 2 concentration 0.15625 µM | 0.264 | 0.281 | 0.316 | 0.412 | 0.485 | 0.618 | 0.728 | 0.829 | 0.983 | 0.997
DIPGX37, compound 2 concentration 0.3125 µM | 0.446 | 0.454 | 0.5 | 0.586 | 0.657 | 0.767 | 0.859 | 0.926 | 0.997 | 1
DIPGX37, compound 2 concentration 0.625 µM | 0.589 | 0.585 | 0.62 | 0.71 | 0.777 | 0.871 | 0.937 | 0.97 | 1 | 1
DIPGX37, compound 2 concentration 1.25 µM | 0.75 | 0.791 | 0.815 | 0.864 | 0.908 | 0.951 | 0.976 | 0.996 | 1 | 1
DIPGX37, compound 2 concentration 5 µM | 0.965 | 0.975 | 0.988 | 0.995 | 0.999 | 1 | 1 | 1 | 1 | 1
DIPGX37, compound 2 concentration 20 µM | 0.996 | 0.998 | 0.998 | 0.996 | 0.998 | 0.997 | 0.997 | 0.997 | 0.998 | 1

CC1(C)OCCn2c1nc1c(N3CCOCC3)nc(-c3cnc(N)nc3)nc12 [GDC0084] + O=C(NOC[C@H](O)CO)c1ccc(F)c(F)c1Nc1ccc(I)cc1F [PD0325901]
growth inhibition
Details | compound 1 concentration 0.009766 µM | compound 1 concentration 0.01953 µM | compound 1 concentration 0.03906 µM | compound 1 concentration 0.07812 µM | compound 1 concentration 0.15625 µM | compound 1 concentration 0.3125 µM | compound 1 concentration 0.625 µM | compound 1 concentration 1.25 µM | compound 1 concentration 5 µM | compound 1 concentration 20 µM
DIPGX29, compound 2 concentration 0.03906 µM | 0.0494 | 0.0257 | 0.0988 | 0.197 | 0.244 | 0.304 | 0.508 | 0.598 | 0.891 | 0.96
DIPGX29, compound 2 concentration 0.07812 µM | 0.246 | 0.221 | 0.24 | 0.295 | 0.368 | 0.426 | 0.565 | 0.653 | 0.915 | 0.964
DIPGX29, compound 2 concentration 0.15625 µM | 0.138 | 0.16 | 0.18 | 0.286 | 0.308 | 0.402 | 0.515 | 0.704 | 0.92 | 0.97
DIPGX29, compound 2 concentration 0.3125 µM | 0.198 | 0.252 | 0.293 | 0.316 | 0.389 | 0.507 | 0.616 | 0.696 | 0.949 | 0.981
DIPGX29, compound 2 concentration 0.625 µM | 0.331 | 0.369 | 0.463 | 0.439 | 0.481 | 0.54 | 0.619 | 0.781 | 0.967 | 0.993
DIPGX29, compound 2 concentration 1.25 µM | 0.511 | 0.539 | 0.543 | 0.583 | 0.62 | 0.67 | 0.806 | 0.869 | 0.983 | 0.999
DIPGX29, compound 2 concentration 5 µM | 0.801 | 0.807 | 0.824 | 0.837 | 0.855 | 0.88 | 0.924 | 0.956 | 0.997 | 0.997
DIPGX29, compound 2 concentration 20 µM | 0.903 | 0.914 | 0.9 | 0.927 | 0.923 | 0.969 | 0.97 | 0.989 | 1 | 1
DIPGX37, compound 2 concentration 0.03906 µM | -0.147 | -0.0916 | -0.0557 | 0.033 | 0.217 | 0.429 | 0.588 | 0.762 | 0.979 | 1
DIPGX37, compound 2 concentration 0.07812 µM | -0.0133 | 0.012 | 0.0971 | 0.209 | 0.356 | 0.514 | 0.694 | 0.823 | 0.99 | 1
DIPGX37, compound 2 concentration 0.15625 µM | 0.0798 | 0.113 | 0.192 | 0.297 | 0.433 | 0.58 | 0.744 | 0.879 | 0.999 | 1
DIPGX37, compound 2 concentration 0.3125 µM | 0.186 | 0.271 | 0.3 | 0.445 | 0.556 | 0.699 | 0.84 | 0.924 | 1 | 1
DIPGX37, compound 2 concentration 0.625 µM | 0.277 | 0.368 | 0.441 | 0.522 | 0.6 | 0.787 | 0.891 | 0.948 | 1 | 1
DIPGX37, compound 2 concentration 1.25 µM | 0.458 | 0.508 | 0.592 | 0.657 | 0.743 | 0.882 | 0.953 | 0.984 | 1 | 1
DIPGX37, compound 2 concentration 5 µM | 0.832 | 0.876 | 0.906 | 0.917 | 0.94 | 0.986 | 1 | 1 | 1 | 1
DIPGX37, compound 2 concentration 20 µM | 0.97 | 0.98 | 0.984 | 0.994 | 0.997 | 1 | 1 | 1 | 1 | 1
